Experimental data as given in US20070276011A1, “Plasminogen Activator Inhibitor-1 Inhibitor” (priority 2003, published 2007).

Biological target: recombinant human PAI-1 (Homo sapiens, UniProt P05121)
Assay: PAI-1 inhibitory activity, Test Method A (tPA fluorogenic substrate, Tris buffer pH8.0, 37 C)
Format: biochemical
Details: 25 μM test compound; Test Method A

Chain of recombinant human PAI-1 (P05121 24-402): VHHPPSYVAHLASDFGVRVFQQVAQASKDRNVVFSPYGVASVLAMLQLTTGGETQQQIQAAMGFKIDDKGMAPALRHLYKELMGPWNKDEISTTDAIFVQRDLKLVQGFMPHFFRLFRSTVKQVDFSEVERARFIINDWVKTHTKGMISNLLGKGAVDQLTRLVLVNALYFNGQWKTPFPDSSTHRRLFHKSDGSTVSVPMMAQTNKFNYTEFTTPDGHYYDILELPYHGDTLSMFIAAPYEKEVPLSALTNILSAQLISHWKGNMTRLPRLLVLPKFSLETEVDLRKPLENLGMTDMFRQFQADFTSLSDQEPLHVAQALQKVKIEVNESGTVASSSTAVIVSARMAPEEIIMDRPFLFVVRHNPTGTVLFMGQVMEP

SMILES | Inhibitory Ratio at 25 μM (%)
CC(C)C1=NN(c2cc(Cl)cc(Cl)c2)C(=O)C1=Cc1cc(O)c(O)c(Br)c1 [compound 540] | >99%
O=C(Nc1cccc(O)c1)c1cc(C=C2SC(=O)N(Cc3ccc(Cl)c(Cl)c3)C2=O)ccc1O [compound 356] | >99%
O=C1SC(=Cc2cccc(O)c2O)C(=O)N1Cc1cccc(Nc2ccccc2)c1 [compound 319] | >99%
O=C(Nc1cc(C=C2SC(=O)N(Cc3ccc(Cl)c(Cl)c3)C2=O)ccc1O)c1ccc(O)c(O)c1 [compound 380] | >99%
COc1ccc(COC(=O)c2cc(C=C3SC(=O)N(Cc4ccc(-c5ccccc5)cc4)C3=O)ccc2O)cc1 [compound 362, 5-[3-(4-Methoxybenzyloxycarbonyl)-4-hydroxybenzylidene]-3-(4-phenylbenzyl)thiazolidine-2,4-dione] | >99%
O=C(O)c1ccc(N2N=C(c3cc(Br)ccc3O)C(=Cc3ccc(Cl)c(Cl)c3)C2=O)cc1 [Compound No. 564, 4-(3,4-Dichlorobenzylidene)-1-(4-carboxyphenyl)-3-(2-hydroxy-5-bromophenyl)-2-pyrazolin-5-one] | 96%
COc1ccc(NC(=O)c2cc(C=C3SC(=O)N(Cc4ccc(Cl)cc4Cl)C3=O)ccc2O)cc1OC [compound 397, 5-[4-Hydroxy-3-(3,4-dimethoxyphenylcarbamoyl)benzylidene]-3-(2,4-dichlorobenzyl)thiazolidine-2,4-dione] | >99%
COC(=O)c1ccc(NC(=O)c2cc(C=C3SC(=O)N(Cc4ccc(Cl)c(Cl)c4)C3=O)ccc2O)cc1O [compound 437] | 69%
COc1cc(C=C2SC(=O)N(Cc3ccc(Cl)c(Cl)c3)C2=O)cc(C(=O)Nc2cc(C(F)(F)F)ccc2Cl)c1O [compound 439] | 89%
COc1ccc(NC(=O)c2cc(C=C3SC(=O)N(Cc4ccc(C(F)(F)F)cc4)C3=O)ccc2O)cc1OC [compound 391, 5-[4-Hydroxy-3-(3,4-dimethoxyphenylcarbamoyl)benzylidene]-3-[4-(trifluoromethyl)benzyl]thiazolidine-2,4-dione] | >99%
COc1ccc(C=C2SC(=O)N(Cc3ccc(Cl)c(Cl)c3)C2=O)cc1C(F)(F)F [compound 333] | 73%
COc1cc(C=C2SC(=O)N(Cc3ccc(Cl)c(Cl)c3)C2=O)cc(C(=O)Nc2ccc(O)c(C)c2)c1O [compound 361] | >99%
CC(C)C1=NN(c2cc(Cl)cc(Cl)c2)C(=O)C1=Cc1c[nH]cn1 [compound 508] | 26%
O=C(Nc1ccc(O)c(O)c1)c1cc(C=C2SC(=O)N(Cc3cc(F)cc(F)c3)C2=O)ccc1O [compound 386] | 98%
COc1cc(C=C2C(=O)N(c3cc(Cl)cc(Cl)c3)N=C2C(C)C)cc(Br)c1O [compound 539, 4-(3-Methoxy-4-hydroxy-5-bromobenzylidene)-1-(3,5-dichlorophenyl)-3-isopropyl-2-pyrazolin-5-one] | 80%
Cc1ccc(O)cc1NC(=O)c1cc(C=C2SC(=O)N(Cc3ccc(Cl)c(Cl)c3)C2=O)ccc1O [compound 456] | 83%
O=C1SC(=Cc2ccc(O)c(O)c2)C(=O)N1Cc1cc(C(F)(F)F)ccc1C(F)(F)F [compound 305, 5-(3,4-Dihydroxybenzylidene)-3-[2,5-bis(trifluoromethyl)benzyl]-thiazolidine-2,4-dione] | >99%
O=C(O)c1cccc(NC(=O)c2cc(C=C3SC(=O)N(Cc4ccc(Cl)c(Cl)c4)C3=O)ccc2O)c1 [compound 420] | 85%
CC(C)C1=NN(c2cc(Cl)cc(Cl)c2)C(=O)C1=Cc1cc(Br)cc(O)c1O [compound 529] | >99%
O=C1SC(=Cc2cccc(O)c2O)C(=O)N1Cc1ccc(Nc2ccccc2)cc1 [compound 309] | >99%
CCOC1=NN(c2ccc([N+](=O)[O-])cc2)C(=O)C1=Cc1cc(Br)ccc1O [compound 513] | 72%
CCOC1=NN(c2ccc([N+](=O)[O-])cc2)C(=O)C1=Cc1c2ccccc2cc2ccccc12 [compound 547] | 62%
O=C(O)c1ccc(NC(=O)c2cccc(C=C3SC(=O)N(Cc4ccc(Cl)c(Cl)c4)C3=O)c2)cc1 [compound 389, 5-[3 (4-Carboxyphenylcarbamoyl)benzylidene]-3-(3,4-dichlorobenzyl)thiazolidine-2,4-dione] | >99%
O=C(Nc1ccc2c(c1)OCO2)c1cc(C=C2SC(=O)N(Cc3ccc(Cl)c(Cl)c3)C2=O)cc(O)c1O [compound 474] | 82%
O=C(CCc1ccccc1)Nc1ccc(CN2C(=O)SC(=Cc3ccc(O)c(O)c3)C2=O)cc1 [compound 315] | 39%

Same assay, conditions: test compound 25 μM; Test Method A

SMILES | Inhibitory Ratio at 25 μM (%)
COC(=O)c1cccc(N2N=C(C(F)(F)F)C(=Cc3ccc(-c4cc(Cl)cc(Cl)c4)s3)C2=O)c1 [compound 181] | 23%
CC1=NN(c2ccc(Cl)c(Cl)c2)C(=O)C1=Cc1ccc(O)c(O)c1 [compound 152] | 89%
CCOC1=NN(c2ccc([N+](=O)[O-])cc2)C(=O)C1=Cc1ccc(C(=O)OC)cc1 [compound 214] | 29%
COC(=O)c1cccc(N2N=C(c3ccccc3)C(=Cc3ccc(-c4cc(Cl)cc(Cl)c4)o3)C2=O)c1 [compound 180] | 90%
O=C1SC(=Cc2ccc(O)c(O)c2)C(=O)N1Cc1ccc(Cl)cc1 [compound 33] | >99%
COc1cc(C=C2C(=O)N(c3ccc(Cl)c(C(=O)O)c3)N=C2C)ccc1OCc1ccccc1 [compound 170] | >99%
CC(C)C1=NN(c2cc(Cl)cc(Cl)c2)C(=O)C1=Cc1ccc(O)c(O)c1 [compound 107] | >99%
COc1cc(C=C2C(=O)N(c3cccc(Cl)c3)N=C2C)cc(O)c1O [compound 124] | 33%
O=C1SC(=Cc2cc(O)ccc2[N+](=O)[O-])C(=O)N1Cc1ccc(Cl)c(Cl)c1 [compound 39] | >99%
O=C1SC(=Cc2ccc(Cl)c(Cl)c2)C(=O)N1Cc1cc(O)c(O)c(O)c1 [compound 78, 5-(3,4-Dichlorobenzylidene)-3-(3,4,5-trihydroxybenzyl)thiazolidine-2,4-dione] | 90%
CC(C)C1=NN(c2cc(Cl)cc(Cl)c2)C(=O)C1=Cc1cccc(C(=O)O)c1 [compound 212] | 82%
CC(C)(C)C1=NN(c2cccc(C(=O)O)c2)C(=O)C1=Cc1ccc(Cl)c(Cl)c1 [compound 198] | 40%
O=C1C(=Cc2ccc(Cl)c(Cl)c2)C(c2ccccc2)=NN1c1cccc([N+](=O)[O-])c1 [compound 201] | >99%
Nc1cc(C=C2SC(=O)N(Cc3ccc(Cl)c(Cl)c3)C2=O)ccc1O [compound 86] | 21%
CCOC(=O)C1=NN(c2cccc(C(=O)OCC)c2)C(=O)C1=Cc1ccc(-c2cc(Cl)cc(Cl)c2)o1 [compound 185] | 89%
CC(C)C1=NN(c2cc(Cl)cc(Cl)c2)C(=O)C1=Cc1cccc(O)c1O [compound 104, 4-(2,3-Dihydroxybenzylidene)-1-(3,5-dichlorophenyl)-3-isopropyl-2-pyrazolin-5-one] | 92%
CC(=O)Nc1ccc(C=C2SC(=O)N(Cc3ccc(Cl)c(Cl)c3)C2=O)cc1 [compound 79, 5-[4-(acetamido)benzylidene]-3-(3,4-dichlorobenzyl)-thiazolidine-2,4-dione] | 65%
O=C(Nc1ccc(CN2C(=O)SC(=Cc3ccc(O)c(O)c3)C2=O)cc1)c1ccccc1 [compound 83] | 60%
O=C1SC(=Cc2cc(O)c(O)c(O)c2)C(=O)N1Cc1cc(Cl)cc(Cl)c1 [compound 54] | >99%
O=C1C(=Cc2ccc(O)c(O)c2)SC(=S)N1c1ccc(O)c(O)c1 [compound 77, 5-(3,4-Dihydroxybenzylidene)-3-(3,4-dihydroxyphenyl)rhodanine] | 20%
CCOC1=NN(c2ccc([N+](=O)[O-])cc2)C(=O)C1=Cc1ccc(C)c(OC)c1 [compound 213] | 40%
CC(C)C1=NN(c2cc(Cl)cc(Cl)c2)C(=O)C1=Cc1ccc(Cl)c([N+](=O)[O-])c1 [compound 206] | 94%
O=C1SC(=Cc2cccc(O)c2O)C(=O)N1Cc1cc(F)cc(F)c1 [compound 24, 5-(2,3-Dihydroxybenzylidene)-3-(3,5-difluorobenzyl)thiazolidine-2,4-dione] | >99%
Cc1cccc(C=C2SC(=O)N(Cc3cc(C(F)(F)F)cc(C(F)(F)F)c3)C2=O)c1O [compound 6] | 46%
O=C1SC(=Cc2cccc(O)c2O)C(=O)N1Cc1ccc([N+](=O)[O-])cc1 [compound 51, 5-(2,3-dihydroxybenzylidene)-3-(4-nitrobenzyl)thiazolidine-2,4-dione] | 86%
CC(C)(C)C1=NN(c2ccccc2)C(=O)C1=Cc1ccc(O)c(O)c1 [compound 133] | 55%
COC(=O)c1cccc(N2N=C(C(F)(F)F)C(=Cc3ccc(-c4cc(Cl)cc(Cl)c4)o3)C2=O)c1 [compound 166, 4-{[5-(3,5-Dichlorophenyl)furan-2-yl]methylene}-1-[3-(methoxycarbonyl)phenyl]-3-trifluoromethyl-2-pyrazolin-5-one] | >99%
